# Tests used:
# HepG2-ARE-C8 cells = assay: ARE luciferase reporter gene experiment; format: cell-based; settings: compound acts 12 h, ratio to DMSO group, FIG. 1, in words
# Description: 2. ARE Luciferase Reporter Gene Experiment
# HepG2-ARE-C8 cells in log growth phase (these cells are given by A. N. Tony Kong of Rutgers University) are digested with 0.1% pancreatin to prepare a cell suspension, the cell suspension is added to a 96-well microtiter plate at a cell concentration of 4×10^5/mL, added 100 μL per well, and after overnight culture, a DMSO group serves as a negative control, t-BHQ serves as a positive control, and a cell culture lysis reagent serves as a background value. The compound is allowed to act for 12 h, three replicate wells were provided, the growth medium is carefully pipetted from the cells to be examined, 100 μL of pre-cooled. […] 100 μL luciferase detection reagent is added to each well and read immediately. […] Typical delay time is 2 seconds, typical reading time is 10 seconds, and the last measured data is divided from the DMSO group. […]
# By a fluorescence polarization based Keap1-Nrf2 PPI competitive inhibition experiment we have shown that on the target level, some compounds (compound numbers see FIG. 1) are able to efficiently compete for binding to Keap1 and thereby activating Nrf2. […] When luciferin is present in a substrate, the […], and the activation capability of a compound on Nrf2 is indirectly reflected by means of fluorescence intensity. […]
# [1] = target: T1, Keap1-Nrf2 PPI (Keap1 kelch domain protein, FITC labeled Nrf2 9 peptide) (Homo sapiens, UniProt Q14145); assay: Fluorescence polarization based Keap1-Nrf2 PPI competitive inhibition experiment (FP experiment); format: binding; settings: for IC50: FP experiment
# T1 construct: 10 μL 12 nm Keap1 kelch domain protein
# Description: 1. Keap1-Nrf2 PPI Competitive Inhibition Test Based on Fluorescence Polarization (FP Experiment)
# The 384-well blackboard model 3676 produced by Corning is used in FP experiment, with a total volume of reaction of 40 μL. 20 μL compound, 10 μL 4 nm FITC labeled Nrf2 9 peptide, 10 μL 12 nm Keap1 kelch domain protein are added to the well in order. 20 μL 200 nM DDO-1002, 10 μL 4 nM of the FITC-labeled Nrf2 9 peptide, 10 μL 12 nM of Keap1 Ketch domain protein are used in the positive control; 20 μL HEPES buffer, 10 μL 4 nM of the FITC-labeled Nrf2 9 peptide, 10 μL, 12 nM of Keap1 Kelch domain protein are used in the negative control; 10 μL 4 nM of the FITC-labeled Nrf2 9 peptide, 30 μL of HEPES buffer are used in the blank control. After addition is complete, they are incubated for 30 min at room temperature. The detection instrument is a SpectraMax Multi-Mode Microplate Reader (Molecular Devices), the excitation light wavelength selected is 485 nm, the emission light wavelength is 545 nm, and the fluorescence intensity in the horizontal and vertical directions is detected to calculate the polarization value. The inhibition rate is calculated as: inhibition %=[…]/(Pmax−Pmin) wherein Pobs is the polarization value of the compound well, Pmax is the polarization value of the negative control well, and Pmin is the polarization value of the blank well. Data treatment is performed using GraphPad Prism, and IC50 of the compound is calculated using a concentration-inhibition rate curve. The IC50 values for each compound are as previously described.
# [2] = general formula V / VI compounds
# [3] = general formula I / II compounds
# T1 sequence (Q14145 321-609 limits assumed): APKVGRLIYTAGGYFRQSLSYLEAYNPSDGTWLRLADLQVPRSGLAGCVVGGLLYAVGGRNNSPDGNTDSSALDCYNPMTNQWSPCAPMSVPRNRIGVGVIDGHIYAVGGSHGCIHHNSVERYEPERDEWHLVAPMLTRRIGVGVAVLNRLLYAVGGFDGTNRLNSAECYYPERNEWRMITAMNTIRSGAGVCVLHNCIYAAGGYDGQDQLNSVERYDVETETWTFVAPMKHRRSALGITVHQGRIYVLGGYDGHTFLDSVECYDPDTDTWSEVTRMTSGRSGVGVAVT
"IC50 [1, 2] [nM]","IC50 [1, 3] [nM]",SMILES,further results
13,,C#CCN(c1ccc(NS(=O)(=O)c2c(C)cc(OC)cc2C)c2ccccc12)[C@@H](C)CC(=O)O [DDO-1220],"ARE luciferase reporter gene activity (fold induction), cell activity (HepG2-ARE-C8 cells): has the optimal cell activity"
7.1,,"C#CCN(c1ccc(N(CC(=O)O)S(=O)(=O)c2c(C)cc(OC)c(C)c2C)c2ccccc12)[C@@H](C)CC(=O)O [DDO-1219, (S)-3-((4-((N-(Carboxymethyl)-4-methoxy-2,3,6-trimethylphenyl)sulfonamidyl)naphthalen-1-yl)(prop-2-yn-1-yl)amino) butanoic acid]",
5.8,,C#CCN(c1ccc(N(CC(=O)O)S(=O)(=O)c2c(C)cc(OC)cc2C)c2ccccc12)[C@@H](C)CC(=O)O [DDO-1221],"ARE luciferase reporter gene activity (fold induction), cell activity (HepG2-ARE-C8 cells): does not have the optimal cell activity; target activity in the FP assay ([1]; in words): optimal target activity"
72,,"C#CCN(c1ccc(NS(=O)(=O)c2ccc(OC)c(C)c2)c2ccccc12)[C@@H](C)CC(=O)O [DDO-1216, (S)-3-((4-((4-methoxy-3-methylphenyl)sulfonamido)naphthalen-1-yl) (prop-2-yn-1-yl)amino) butanoic acid]",

# Further lines, the molecule ahead of its results:
SMILES,"IC50 [1, 2] [nM]","IC50 [1, 3] [nM]",further results
"COc1ccc(S(=O)(=O)N(CC(=O)O)c2ccc(N(Cc3ccccc3)[C@@H](C)CC(=O)O)c3ccccc23)cc1 [DDO-1161, (S)-3-(benzyl(4-((N-(carboxymethyl)-4methoxyphenyl)sulfonamido)naphthalen-1-yl) (benzyl)amino) butanoic acid]",,108,
"COc1ccc(S(=O)(=O)Nc2ccc(N(Cc3ccc(F)cc3)[C@@H](C)CC(=O)O)c3ccccc23)cc1 [DDO-1166, (S)-3-((4-fluorobenzyl) (4-((4-methoxyphenyl)sulfonamido)naphthalen-1-yl)amino) butanoic acid]",,2150,
"C#CCN(c1ccc(N(CC(=O)O)S(=O)(=O)c2ccc(Cl)cc2)c2ccccc12)[C@@H](C)CC(=O)O [DDO-1193, (S)-3-((4-((N-(Carboxymethyl)-4-chlorophenyl)sulfonamido)naphthalen-1-yl)(prop-2-yn-1-yl)amino) butanoic acid]",,,IC50 ([1]; general formula IV compounds): 950 nM
C#CCN(c1ccc(N(CC(=O)O)S(=O)(=O)c2cccc(OC)c2)c2ccccc12)[C@@H](C)CC(=O)O [DDO-1201],,,IC50 ([1]; general formula IV compounds): 130 nM
"COc1ccc(S(=O)(=O)Nc2ccc(N(Cc3cccc(F)c3)[C@@H](C)CC(=O)O)c3ccccc23)cc1 [DDO-1176, (S)-3-((3-fluorobenzyl) (4-((4-methoxyphenyl)sulfonamido)naphthalen-1-yl)amino) butanoic acid]",,2470,
"COc1ccc(S(=O)(=O)N(CC(=O)O)c2ccc(N(Cc3cccc(Cl)c3)[C@@H](C)CC(=O)O)c3ccccc23)cc1 [DDO-1173, (S)-3-((4-((N-(Carboxymethyl)-4-methoxyphenyl)sulfonamido)naphthalen-1-yl) (3-chlorobenzyl)amino) butanoic acid]",,180,
